Measured values: ChEMBL document CHEMBL1133283, “Arylsulfonyl-N,N-diethyl-dithiocarbamates: a novel class of antitumor agents” (Bioorg Med Chem Lett, 2000)

Legend:
Carbonic anhydrase 2 = Carbonic anhydrase 2 (Homo sapiens, UniProt P00918); assay: Binding affinity of compound against human Carbonic anhydrase II
SW-620 = assay: In vitro growth inhibition of compound was determined against SW-620 cell lines of colon cancer; format: functional; conditions: Homo sapiens
Malme-3M = assay: In vitro growth inhibition of compound was determined against MALME-3M cell lines of Melanoma; format: functional; conditions: Homo sapiens
MDA-MB-231 = assay: In vitro growth inhibition of compound was determined against MDA-MB-231/ATCC cell lines of Breast cancer; format: functional; conditions: Homo sapiens
PC-3 = assay: In vitro growth inhibition of compound was determined against PC-3 cell lines of Prostate cancer; format: functional; conditions: Homo sapiens
HCT-15 = assay: In vitro growth inhibition of compound was determined against HCT-15 cell lines of colon cancer; format: functional; conditions: Homo sapiens
RPMI-8226 = assay: In vitro growth inhibition of compound was determined against RPMI-8226 cell lines of Leukemia; format: functional; conditions: Homo sapiens
COLO 205 = assay: In vitro growth inhibition of compound was determined against COLO-205 cell lines of colon cancer; format: functional; conditions: Homo sapiens
SF-268 = assay: In vitro growth inhibition of compound was determined against SF-268 cell lines of CNS cancer; format: functional; conditions: Homo sapiens
CAKI-1 = assay: In vitro growth inhibition of compound was determined against CAKI-1 cell lines of Renal cancer; format: functional; conditions: Homo sapiens
NCI-H522 = assay: In vitro growth inhibition of compound was determined against NCI-H522 cell lines of non-small cell lung cancer; format: functional; conditions: Homo sapiens
HL-60 = assay: In vitro growth inhibition of compound was determined against HL-60(TB) cell lines of Leukemia; format: functional; conditions: Homo sapiens
UACC-257 = assay: In vitro growth inhibition of compound was determined against UACC-257 cell lines of Melanoma; format: functional; conditions: Homo sapiens
MDA-MB-435 = assay: In vitro growth inhibition of compound was determined against MDA-MB-435 cell lines of Breast cancer; format: functional; conditions: Homo sapiens
U-251 = assay: In vitro growth inhibition of compound was determined against U251 cell lines of CNS cancer; format: functional; conditions: Homo sapiens
NCI/ADR-RES = assay: In vitro growth inhibition of compound was determined against NCI/ADR-RES cell lines of Breast cancer; format: functional; conditions: Homo sapiens
OVCAR-8 = assay: In vitro growth inhibition of compound was determined against OVCAR-8 cell lines of Ovarian cancer; format: functional; conditions: Homo sapiens
DU-145 = assay: In vitro growth inhibition of compound was determined against DU-145 cell lines of Prostate cancer; format: functional; conditions: Homo sapiens
KM12 = assay: In vitro growth inhibition of compound was determined against KM12 cell lines of colon cancer; format: functional; conditions: Homo sapiens
IGROV-1 = assay: In vitro growth inhibition of compound was determined against IGROVI cell lines of Ovarian cancer; format: functional; conditions: Homo sapiens
CCRF-CEM = assay: In vitro growth inhibition of compound was determined against CCRF-CEM cell lines of Leukemia; format: functional; conditions: Homo sapiens
LOX IMVI = assay: In vitro growth inhibition of compound was determined against LOX IMVI cell lines of Melanoma; format: functional; conditions: Homo sapiens
MDA-N = assay: In vitro growth inhibition of compound was determined against MDA-Ncell lines of Breast cancer; format: functional; conditions: Homo sapiens
SF-295 = assay: In vitro growth inhibition of compound was determined against SF-295 cell lines of CNS cancer; format: functional; conditions: Homo sapiens
OVCAR-3 = assay: In vitro growth inhibition of compound was determined against OVCAR-3 cell lines of Ovarian cancer; format: functional; conditions: Homo sapiens
UO-31 = assay: In vitro growth inhibition of compound was determined against UO-31 cell lines of Renal cancer; format: functional; conditions: Homo sapiens
OVCAR-4 = assay: In vitro growth inhibition of compound was determined against OVCAR-4 cell lines of Ovarian cancer; format: functional; conditions: Homo sapiens
TK-10 = assay: In vitro growth inhibition of compound was determined against TK-10 cell lines of Renal cancer; format: functional; conditions: Homo sapiens
Hs-578T = assay: In vitro growth inhibition of compound was determined against Hs 578.T cell lines of Breast cancer; format: functional; conditions: Homo sapiens
K562 = assay: In vitro growth inhibition of compound was determined against K-562 cell lines of Leukemia; format: functional; conditions: Homo sapiens
BT-549 = assay: In vitro growth inhibition of compound was determined against BT-549 cell lines of Breast cancer; format: functional; conditions: Homo sapiens
M14 = assay: In vitro growth inhibition of compound was determined against M14 cell lines of Melanoma; format: functional; conditions: Homo sapiens
786-0 = assay: In vitro growth inhibition of compound was determined against […] cell lines of Renal cancer; format: functional; conditions: Homo sapiens
MOLT-4 = assay: In vitro growth inhibition of compound was determined against MOLT-4 cell lines of Leukemia; format: functional; conditions: Homo sapiens
HOP-92 = assay: In vitro growth inhibition of compound was determined against HOP-92 cell lines of non-small cell lung cancer; format: functional; conditions: Homo sapiens
SK-MEL-5 = assay: In vitro growth inhibition of compound was determined against SK-MEL-5 cell lines of Melanoma; format: functional; conditions: Homo sapiens
HOP-62 = assay: In vitro growth inhibition of compound was determined against HOP-62 cell lines of non-small cell lung cancer; format: functional; conditions: Homo sapiens
SF-539 = assay: In vitro growth inhibition of compound was determined against SF-539 cell lines of CNS cancer; format: functional; conditions: Homo sapiens
SK-MEL-28 = assay: In vitro growth inhibition of compound was determined against SK-MEL-28 cell lines of Melanoma; format: functional; conditions: Homo sapiens
NCI-H226 = assay: In vitro growth inhibition of compound was determined against NCI-H226 cell lines of non-small cell lung cancer; format: functional; conditions: Homo sapiens
HCT-116 = assay: In vitro growth inhibition of compound was determined against HCT116 cell lines of colon cancer; format: functional; conditions: Homo sapiens
ACHN = assay: In vitro growth inhibition of compound was determined against ACHN cell lines of Renal cancer; format: functional; conditions: Homo sapiens
SN12C = assay: In vitro growth inhibition of compound was determined against SN12C cell lines of Renal cancer; format: functional; conditions: Homo sapiens
SR = assay: In vitro growth inhibition of compound was determined against SR cell lines of Leukemia; format: functional; conditions: Homo sapiens
HCC 2998 = assay: In vitro growth inhibition of compound was determined against HCC2998 cell lines of colon cancer; format: functional; conditions: Homo sapiens
MCF7 = assay: In vitro growth inhibition of compound was determined against MCF-7 cell lines of Breast cancer; format: functional; conditions: Homo sapiens
RXF 393 = assay: In vitro growth inhibition of compound was determined against RXF393 cell lines of Renal cancer; format: functional; conditions: Homo sapiens
SNB-75 = assay: In vitro growth inhibition of compound was determined against SNB-75 cell lines of CNS cancer; format: functional; conditions: Homo sapiens
A549 = assay: In vitro growth inhibition of compound was determined against A549/ATCC cell lines of non-small cell lung cancer; format: functional; conditions: Homo sapiens
HT-29 = assay: In vitro growth inhibition of compound was determined against HT-29 cell lines of colon cancer; format: functional; conditions: Homo sapiens

**Q.** Which Ki (Carbonic anhydrase 2) does the source give for NS(=O)(=O)c1ccc(NSC(=S)N2CCOCC2)cc1 here?
**A.** Its Ki is 35 nM.

**Q.** What does the source list for CCN(CC)C(=S)SS(=O)(=O)c1ccc(N)cc1?
**A.** GI50 (SW-620): > 100 µM; GI50 (Malme-3M): 46 µM; GI50 (MDA-MB-231): > 100 µM; GI50 (PC-3): 90 µM; GI50 (HCT-15): > 100 µM; GI50 (RPMI-8226): 22 µM; GI50 (COLO 205): > 100 µM; GI50 (SF-268): > 100 µM; GI50 (CAKI-1): 22 µM; GI50 (NCI-H522): 1000 nM; GI50 (HL-60): > 100000 nM; GI50 (UACC-257): > 100 µM; GI50 (MDA-MB-435): > 100 µM; GI50 (U-251): > 100 µM; GI50 (NCI/ADR-RES): > 100 µM; GI50 (OVCAR-8): > 100 µM; GI50 (DU-145): > 100 µM; GI50 (KM12): 22 µM; GI50 (IGROV-1): 5 µM; GI50 (CCRF-CEM): > 100 µM; GI50 (LOX IMVI): > 100 µM; GI50 (MDA-N): 65 µM; GI50 (SF-295): > 100 µM; GI50 (OVCAR-3): > 100 µM; GI50 (UO-31): 80 µM; GI50 (OVCAR-4): > 100 µM; GI50 (TK-10): > 100 µM; GI50 (Hs-578T): 83 µM; GI50 (K562): 34 µM; GI50 (BT-549): > 100 µM; GI50 (M14): 63 µM; GI50 (786-0): 3 µM; GI50 (MOLT-4): 2000 nM; GI50 (HOP-92): 5 µM; GI50 (SK-MEL-5): 13 µM; GI50 (HOP-62): 33 µM; GI50 (SF-539): 21 µM; GI50 (SK-MEL-28): > 100 µM; GI50 (NCI-H226): 98 µM; GI50 (HCT-116): > 100 µM; GI50 (ACHN): 61 µM; GI50 (SN12C): > 100 µM; GI50 (SR): 3000 nM; GI50 (HCC 2998): 8 µM; GI50 (MCF7): 5 µM; GI50 (RXF 393): 22 µM; GI50 (SNB-75): 48 µM; GI50 (A549): 7 µM

**Q.** What does the source list for CCN(CC)C(=S)SS(=O)(=O)c1ccc([N+](=O)[O-])cc1?
**A.** GI50 (SW-620): 18 µM; GI50 (Malme-3M): 14 µM; GI50 (MDA-MB-231): 26 µM; GI50 (HCT-15): 52 µM; GI50 (RPMI-8226): 12 µM; GI50 (COLO 205): 19 µM; GI50 (SF-268): > 100 µM; GI50 (CAKI-1): 18 µM; GI50 (NCI-H522): 20 nM; GI50 (UACC-257): 24 µM; GI50 (MDA-MB-435): 23 µM; GI50 (U-251): 14 µM; GI50 (NCI/ADR-RES): 48 µM; GI50 (OVCAR-8): 20 µM; GI50 (DU-145): 27 µM; GI50 (KM12): 11 µM; GI50 (HT-29): 22 µM; GI50 (LOX IMVI): 17 µM; GI50 (MDA-N): 30 µM; GI50 (SF-295): 59 µM; GI50 (OVCAR-3): 35 µM; GI50 (UO-31): 21 µM; GI50 (OVCAR-4): 45 µM; GI50 (TK-10): 43 µM; GI50 (Hs-578T): > 100 µM; GI50 (K562): 19 µM; GI50 (BT-549): 36 µM; GI50 (M14): 15 µM; GI50 (786-0): 16 µM; GI50 (HOP-92): 4 µM; GI50 (SK-MEL-5): 2 µM; GI50 (HOP-62): 32 µM; GI50 (SF-539): 20 µM; GI50 (SK-MEL-28): 19 µM; GI50 (NCI-H226): 83 µM; GI50 (HCT-116): 5 µM; GI50 (ACHN): 36 µM; GI50 (SN12C): 27 µM; GI50 (SR): 100 nM; GI50 (HCC 2998): 94 µM; GI50 (MCF7): 6 µM; GI50 (RXF 393): 16 µM; GI50 (SNB-75): 77 µM; GI50 (A549): 1 µM

**Q.** Which results are given for CCN(CC)C(=S)SS(=O)(=O)c1ccccc1C(=O)O?
**A.** GI50 (SW-620): > 100 µM; GI50 (Malme-3M): 91 µM; GI50 (MDA-MB-231): > 100 µM; GI50 (PC-3): > 100 µM; GI50 (HCT-15): > 100 µM; GI50 (COLO 205): > 100 µM; GI50 (SF-268): > 100 µM; GI50 (CAKI-1): > 100 µM; GI50 (NCI-H522): 1200 nM; GI50 (HL-60): 1400 nM; GI50 (UACC-257): > 100 µM; GI50 (U-251): > 100 µM; GI50 (OVCAR-8): > 100 µM; GI50 (DU-145): > 100 µM; GI50 (HT-29): > 100 µM; GI50 (IGROV-1): > 100 µM; GI50 (CCRF-CEM): 82 µM; GI50 (LOX IMVI): > 100 µM; GI50 (MDA-N): > 100 µM; GI50 (SF-295): > 100 µM; GI50 (OVCAR-3): > 100 µM; GI50 (UO-31): > 100 µM; GI50 (OVCAR-4): > 100 µM; GI50 (M14): > 100 µM; GI50 (786-0): > 100 µM; GI50 (HOP-92): > 100 µM; GI50 (SK-MEL-5): 37 µM; GI50 (HOP-62): > 100 µM; GI50 (SK-MEL-28): > 100 µM; GI50 (NCI-H226): > 100 µM; GI50 (ACHN): > 100 µM; GI50 (SR): 3600 nM; GI50 (MCF7): > 100 µM; GI50 (RXF 393): > 100 µM; GI50 (SNB-75): > 100 µM; GI50 (A549): 6.5 µM
